Experimental data reported in article PMC3404738 (International journal for parasitology, drugs and drug …, 2012).

Tested on: A. ceylanicum
Assay: In vivo treatment in the hamster model of hookworm infection
Parameters: species or system Ancylostoma ceylanicum
Conditions: ABZ 10mg/kg once orally, hamsters, 20 DPI, vs infected controls

Which Intestinal worm burdens does the source give for `CCCSc1ccc2nc(NC(=O)OC)[nH]c2c1` [Albendazole, reference compound] here?
Its Intestinal worm burdens is “eliminated intestinal worm burdens”.
